Reference: patent US4939137A, “Ring-fused thienopyrimidinedione derivatives” (Ortho Pharmaceutical Corporation, priority 1989, dated 1990)

How the values were obtained:
[1] = tested on: alpha adrenergic receptor; assay: Alpha-1 Adrenergic Blockage: Inhibition of Phenylephrine-Induced Increases in Blood Pressure in the Anesthetized Dog; format: in vivo; details: i.v., phenylephrine 10 μg/kg
Source text: Dogs were anesthetized and bilaterally vagotomized. A femoral artery and vein were cannulated for detection of diastolic blood pressure and drug administration, respectively. Percent inhibition of alpha adrenergic receptor antagonism was quantified by determining dose-response (increase in diastolic pressure) relationship of phenylephrine before and after various doses of the antagonist.

[2] = target: alpha-1 adrenergic receptor; assay: Brain Alpha-1 Radioreceptor Assay (3H-prazosin); details: guinea pig brain membranes, 30 minutes, 30° C., read-out: RECEPTOR BINDING ALPHA-1 (IC50)
Procedure: Membrane fragments were prepared from the brains of mature female guinea pigs after removal of the corpus striata. The alpha-1 adrenergic receptor sites were labeled with ^3 H-prazosin. Membrane fragments, ^3 H-prazosin and an unlabeled test compound were incubated for 30 minutes at 30° C. Compound bound to the receptor site was separated from the remaining unbound radioligand by vacuum filtration. Specific binding was determined by the difference between total counts bound and counts bound in the presence of 10-^5 M phentolamine.

5HT1A receptor = target: T1, 5HT1A receptor (Rattus norvegicus, UniProt P19327); assay: Brain Serotonin 5HT1A Radioreceptor Assay (3H-80H-DPAT); format: binding; details: rat frontal cortex membranes, 10 minutes, 37° C., read-out: RECEPTOR BINDING 5HT-1A (IC50)
T1 construct: Membrane fragments were prepared from the frontal cortex dissected from brains obtained from female rats; from tissue; host or cells: frontal cortex, female rats
T1 sequence (P19327 1-422): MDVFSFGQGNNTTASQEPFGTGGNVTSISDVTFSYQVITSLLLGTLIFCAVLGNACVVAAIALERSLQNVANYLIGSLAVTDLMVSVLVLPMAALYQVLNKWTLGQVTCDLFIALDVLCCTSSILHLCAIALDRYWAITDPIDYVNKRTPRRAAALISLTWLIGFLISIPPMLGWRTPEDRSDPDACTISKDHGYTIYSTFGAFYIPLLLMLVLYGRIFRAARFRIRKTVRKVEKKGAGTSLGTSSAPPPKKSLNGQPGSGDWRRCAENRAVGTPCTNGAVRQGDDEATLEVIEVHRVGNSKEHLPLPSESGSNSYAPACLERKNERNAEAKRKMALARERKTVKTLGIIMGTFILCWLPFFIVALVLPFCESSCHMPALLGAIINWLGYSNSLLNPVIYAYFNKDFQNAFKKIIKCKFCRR
Procedure: Membrane fragments were prepared from the frontal cortex dissected from brains obtained from female rats (~150 g). The 5HT1A sites were labeled with ^3 H-80H-dipropylaminotetralin (^3 H-80H-DPAT). Membrane fragments, ^3 H-80H-DPAT and an unlabeled test compound were incubated for 10 minutes at 37° C. The tubes were then placed in an ice bath for an additional 10 minutes. Compound bound to the receptor site was separated from the remaining unbound compound by vacuum filtration.
The ability of a nonlabeled compound to compete with ^3 H-80H-DPAT for binding sites was a measure of the compound's affinity for the 5HT1A receptor. Specific binding was determined by the difference between total counts bound and counts bound in the presence of 10^-5 M serotonin.
Data are presented at the IC50, the concentration of nonlabeled compound required to displace 50% of the ^3 H-80H-DPAT specifically bound to 5HT1A binding sites.

[3] = tested on: spontaneously hypertensive rats (SHR); assay: Antihypertensive Activity: Spontaneously Hypertensive Rat (SHR test); format: in vivo, rat (male spontaneously hypertensive); details: p.o. or i.v.; for SHR TEST: change in mean arterial blood pressure: dose 2.5 mpk
Procedure: Mean arterial pressure and heart rate were monitored from directly cannulated animals. Compounds were administered p.o. or i.v. and blood pressure was recorded for various time intervals post dosing.
Blood pressure changes (expressed as change in control pressure and reported as delta % of control for each animal) were analyzed statistically using a one way analysis of variance with a Dunnett's test. P values less than 0.05 were considered significant.

5HT2 receptor = target: T2, 5HT2 receptor (Rattus norvegicus, UniProt P14842); assay: Brain Serotonin 5HT2 Radioreceptor Assay (3H-ketanserin); format: binding; details: rat frontal cortex membranes, 15 minutes, 37° C., read-out: RECEPTOR BINDING 5HT-2 (IC50)
T2 construct: Membrane fragments were prepared from the frontal cortex dissected from brains obtained from female rats; from tissue; host or cells: frontal cortex, female rats
T2 sequence (P14842 whole entry, the tested form may be a part): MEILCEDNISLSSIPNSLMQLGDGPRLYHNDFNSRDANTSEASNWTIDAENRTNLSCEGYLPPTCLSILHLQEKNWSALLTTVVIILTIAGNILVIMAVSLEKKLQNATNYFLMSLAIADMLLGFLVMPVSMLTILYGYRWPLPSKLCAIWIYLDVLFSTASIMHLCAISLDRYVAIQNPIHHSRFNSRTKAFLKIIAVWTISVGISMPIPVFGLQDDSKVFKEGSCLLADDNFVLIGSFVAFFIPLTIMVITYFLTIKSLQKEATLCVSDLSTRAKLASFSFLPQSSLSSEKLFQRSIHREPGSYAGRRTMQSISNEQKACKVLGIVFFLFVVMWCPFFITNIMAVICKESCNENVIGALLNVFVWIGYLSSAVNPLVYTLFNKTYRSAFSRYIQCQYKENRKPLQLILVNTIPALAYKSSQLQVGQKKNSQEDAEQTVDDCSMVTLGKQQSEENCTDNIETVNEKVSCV
Procedure: Membrane fragments were prepared from the frontal cortex dissected from brains obtained from female rats (~150 g). The 5HT2 sites were labeled with ^3 H-ketanserin. Membrane fragments, ^3 H-ketanserin and an unlabeled test compound were incubated for 15 minutes at 37° C. Compound bound to the receptor site was separated from the remaining unbound compound by vacuum filtration.
The ability of a nonlabeled compound to compete with ^3 H-ketanserin for binding sites was a measure of the compound's affinity for the 5HT2 receptor. Specific binding was determined by the difference between total counts bound and counts bound in the presence of 10^-6 M methysergide.
Data are presented as the IC50, the concentration of nonlabeled compound required to displace 50% of the ^3 H-ketanserin specifically bound to 5HT2 binding sites.

| SMILES | % INHIB OF PHENYLEPHRINE RESPONSE ([1]; dose 0.03 mpk) [%] | IC50 [2] [nM] | IC50 (5HT1A receptor) [nM] | SHR TEST: change in mean arterial blood pressure [3] [mm Hg] | IC50 (5HT2 receptor) [nM] | % INHIB OF PHENYLEPHRINE RESPONSE ([1]; dose 0.003 mpk) [%] | change in vivo at 5 mg/kg ([3]; Rattus norvegicus, dose 5 mpk, read-out: SHR TEST: change in blood pressure (delta % of control)) [%] |
| --- | --- | --- | --- | --- | --- | --- | --- |
| COc1ccccc1N1CCN(CCn2c(=O)c3csc4c3n(c2=O)CCC4=O)CC1 [Example 1, 3,4,5,7,8,9-Hexahydro-4-[2-[4-(2-methoxyphenyl)piperazin-1-yl]ethyl]thieno[4,3,2-de]pyrido[1,2c]pyrimidine-3,5,9-trione] | 86 | 18 | 25 | -59 | 6500 | – | – |
| COc1ccccc1N1CCN(CCn2c(=O)c3csc4c3n(c2=O)CC=C4)CC1 [Example 24, 3,4,5,7-Tetrahydro-4-[2-[4-(2-methoxyphenyl)piperazin-1-yl]ethyl]thieno[4,3,2-de]pyrido[1,2-c]pyrimidine-3,5-dione] | 98 | 23 | 120 | -59.0 | 2000 | – | – |
| COc1ccccc1N1CCN(CCn2c(=O)c3csc4c3n(c2=O)CCNC4=O)CC1 [Example 25] | – | 45 | 48 | -58.0 | 2000 | 94 | – |
| COc1ccccc1N1CCN(CCn2c(=O)c3csc4c3n(c2=O)CCC4OC(=O)c2ccccc2)CC1 (centres unmarked) [Example 35, 9-Benzoyloxy-3,4,5,7,8,9-hexahydro-4-[2-[4-(2-methoxyphenyl)piperazin-1-yl]ethyl]thieno[4,3,2-de]pyrido[1,2-c]pyrimidine-3,5-dione] | 89 | 0.015 | 130 | – | 1500 | – | -16.6 |
